Entries after “also recorded” stand apart in the source; their conditions may differ. Like-named read-outs stand apart in the source and are kept apart here.

This is an account of results in patent US11415493B2, “Detection of cells in a liquid sample” (DELTA INSTRUMENTS B.V., priority 2016, dated 2022).

The test system of one data set is cells. The note with it: cited from earlier work.
For a further data set, the system named is bacteria in milk samples. The data set can be described thus: Individual bacterial count (IBC) in milk samples with different cell-impermeant dyes, flow cytometer. It is filed as cell-based. As to the method: The nucleic acid dyes, Evagreen®, SYTOX® Green and Propidium iodide where tested against GelGreen™ (the reference method). […] Nucleic acid dyes Evagreen®, SYTOX® Green and propidium iodide were tested using the same staining and incubation conditions as for the reference method only differing in the type of dye comprised in the staining composition. Evagreen® was used at a concentration of 1.25 μM in the staining composition. SYTOX® Green and Propidium iodide were used at a concentration of 5 μM in the staining composition. Three different types of milk were used: Locally obtained raw bulk tank milk from a farm and dairy plant where collected at a local farmer. This milk is referred to as fresh raw milk and is not older than 24 hours. 24 hour and 48 hour old milk were obtained from a dairy plant. […] For this purpose E. coli was grown overnight (approx. 15 h) in TSB at 32° C. The dead bacterial where obtained by heating the grown E. coli at 110° C. for 10 minutes. An amount of 200 μl of E. coli (living or dead/damaged) is added to 45 ml fresh raw bulk milk. Both living and dead are from the same culture tube and exactly the same amount is put in the 45 ml Fresh raw milk. All the milk samples are kept at 4° C. until analyzed. […] Finally, the samples were analyzed on the flow cytometer and the fluorescent signals from the bacteria were detected and a count per unit volume was determined. […]

In the next data set the test system is E. coli. The data set can be described thus: Staining E. coli culture with different nucleic acid dyes, flow cytometer counts (FL1FL2 region). It is filed as cell-based, Escherichia coli. How it is done: First, an experiment was performed to confirm that bacterial counts obtained on the flow cytometer using GelGreen™ did correlate with traditional plate counts. For this, the Petrifilm method was selected (Standard Methods for Examination of Dairy Products 17th Edition 2004. Edited by H. M. Wehr and J. R. Frank. American Public Health Association, 800 I Street, NW, Washington D.C. 200001. Chapter 6.040), rather than a poured agar plate method, because of ease of use. Escherichia coil (E. coli) cultures were grown at 36° C. in Trypticase Soy Broth (TSB) in a culture tube. A staining composition was prepared as follows: The nucleic acid dye GelGreen™ (from Biotium) was diluted to 1× from the 10,000× commercially available stock, into Tris-buffered saline (100 mM Trizma base, 100 mM Trizma HCl, 150 mM NaCl, pH 8.5), which was preheated to 50° C. The used dilution of 1:10,000 of the GelGreen™ is in accordance with the manufacturer's recommendation for using GelGreen™ for the purpose it was intended for, namely staining DNA in an agarose gel. This is the dilution of GelGreen™ used in all the examples herein. The E. coli culture was removed from the 36° C. incubator and a small volume was diluted 1:100 into the preheated staining composition and incubated for approximately 4.5 min at 50° C. The stained E. coli was analyzed on the flow cytometer and the FL1 (Bandpass 531 nm (519-551)) and FL2 (Long pass >550 nm) fluorescence channels were used to identify the stained bacteria (FIGS. 1A and 1C). A rectangular region was defined around the positively stained cells identified as live cells in the FL1 versus FL2 2-dimensional correlation plot (FIG. 1B). A count per mL of the E. coli was obtained from the flow cytometry analysis. The E. coli culture was then diluted in TSB to obtain 3 different concentrations (1:10, 1:100 and 1:1000, respectively). The E. coli cultures were kept at 4° C. to minimize further growth until analysis. Each dilution of E. coli was stained with the GelGreen™ reagent, analyzed on the flow cytometer and counts for each dilution were obtained. Each E. coli culture was also appropriately diluted in Butterfield's PBS and 1 mL of the appropriately diluted culture was plated on Petrifilms in duplicate. The Petrifilms were placed in a 30° C. incubator, removed after 48 hrs and the colonies on each Petrifilm were counted using an automated colony counter. An average CFU/mL for each E. coli dilution was obtained. The Log of the flow cytometer bacterial counts using GelGreen™ was plotted versus the Log CFU counts from the Petrifilm (FIG. 2).
To show where the bacteria in the FL1 and FL2 signal plots can be expected, bacteria were first counted in the staining composition without adding any milk. A culture of E. coli were grown at 36° C. in Trypticase Soy Broth (TSB) in a culture tube. The nucleic acid dye GelGreen™ was diluted into Tris-buffered saline, at approximately pH 8.5, which was preheated to 50° C. The E. coli culture was removed from the 36° C. incubator and a small volume was diluted 1:100 into the preheated staining composition and incubated for approximately 4.5 min at 50° C. The stained E. coli was analyzed on the flow cytometer and the FL1 and FL2 fluorescence channels were used to identify the stained bacteria (FIG. 3A).
A culture of E. coli was grown at 36° C. in Trypticase Soy Broth (TSB), stained with GelGreen™ and counted on the flow cytometer (FIG. 5) as described in example 2. The E. coli culture was then kept at 4° C. until stained with other nucleic acid dyes. The nucleic acid dyes TOTO®-1 and SYBR® Safe (both from Thermo Fisher Scientific) were selected as alternatives. […] Both dyes have similar spectral properties to GelGreen™ and were diluted in Tris-buffered saline using the same dilution factor as GelGreen™. […]
In general terms: In flow cytometry, cells or beads pass a laser one at a time.

In a further data set the test system is bacteria in raw milk. The data set can be described thus: Initial staining of bacteria in raw milk diluted in saline buffer, flow cytometer. It is filed as cell-based. As to the method: During initial work, raw milk was diluted in a buffer solution and the cell permeant nucleic acid stain SYTO® 9 was used to stain the bacteria contained in the milk. A flow cytometer, equipped with a 488 nm laser as the light source, forward and right angle scatter detectors, and three fluorescence detectors, was used to detect the fluorescence from labeled bacteria. The three fluorescence detectors in the flow cytometer in that initial experiment had the following optical filters; 527 nm Bandpass (FL1), 590 nm Bandpass (FL2), and a 630 nm Longpass (FL3). The flow cytometer utilizes a system that provides volumetric measurement of the sample analyzed and yields a count per unit volume. […] The conclusion was that the background fluorescent signal from the various components in raw milk, and the non-specific binding of the dye to these components, dominated the signal such that it was impossible to detect any bacteria-related fluorescence. Additionally the large scatter signals detected in flow cytometry from the milk fat globules, casein micelles and other components in the milk, prevented the use of forward and right angle scatter in the detection of bacteria. To prevent the background signal, the inventors of the present invention made an attempt to minimize such interference. […]

As for `CC[N+](C)(CC)CCC[n+]1c(-c2ccccc2)c2cc(N)ccc2c2ccc(N)cc21.[I-].[I-]` [Propidium iodide], the cell membrane permeability result in the data set with cells is on record as “only penetrates cell membranes of dead cells”. In the data set on bacteria in milk samples (conclusion over all milk samples), the “usefulness as alternative dye for GelGreen in the method” value is reported as “does not work”. For the same compound, the IBC counts entry in the data set on bacteria in milk samples (milk samples except milk spiked with E. coli and cooked, 68° C., 1 min, pH 10.6) is reported as “Almost no IBC counts”.

With `CCCN1C=C/C(=C\c2sc3ccccc3[n+]2C)c2ccccc21` [SYBR® Safe], the cell membrane permeability entry in the data set with cells (property stated for the dye) is listed as “readily crosses the membrane of cells”. The “staining of E. coli” value with E. coli (Tris-buffered saline pH 8.5, room temperature (23° C.)) was “does not need heating to stain E. coli”.

For `CN1/C(=C/c2cc[n+](CCC[N+](C)(C)CCC[N+](C)(C)CCC[n+]3ccc(/C=C4\Sc5ccccc5N4C)c4ccccc43)c3ccccc23)Sc2ccccc21.[I-].[I-].[I-].[I-]` [TOTO®-1], in the data set on cells (property stated for the dye), the cell membrane permeability entry is on record as “cell impermeant”. Further, in the data set on E. coli (Tris-buffered saline pH 8.5, 50° C., approximately 4.5 min), the “staining of E. coli” value was “minimal staining; also recorded: does not stain E. coli”.

As for SYTO® 9, the “fluorescence signals of raw milk with spiked bacteria” value in the data set with bacteria in raw milk is recorded as “identical to the fluorescence detected in raw milk without spiked bacteria”.
